What was measured:
[1] = test system: rat; experiment: Single oral dose toxicology study in rat; type: in vivo
Method: Nonclinical toxicology studies have been performed with compound A in the rat and cynomolgus monkey. Adverse effects were not observed after single oral doses of up to 500 mg/kg in rat and up to 2000 mg/kg in cynomolgus monkey.

[2] = test system: subjects with TRD; experiment: Example 1 Part B: safety and tolerability of a single dose in subjects with TRD; conditions: single oral 2400 mg
Source text: In Part B of the study, approximately 32 subjects were randomly assigned to double-blind treatment in one cohort. […] The single-blind placebo lead-in treatment was intended to facilitate screening out placebo responders.
The study included standard safety and tolerability assessments—e.g., physical, neurological, and psychiatric examinations, vital signs, oral temperature, respiration rate, weight, 12-lead paper electrocardiograms (pECGs), dECGs, clinical laboratory tests, monitoring of adverse events (AEs) and concomitant medications, and, in Part A of the study, cardiovascular (CV) telemetry and safety EEGs.
Placebo was administered orally as a solution.

Which “finding after single oral dose” value ([1]; in vivo, po, 2000 mg/kg) does the source give for `CC(C)(C[C@H](N)C(=O)O)C(F)F` [Compound A, (S)-2-amino-5,5-difluoro-4,4-dimethylpentanoic acid] here?
The value was “ataxia was noted”.

What about the “time by which ataxia resolved” value ([1]; in vivo, po, 2000 mg/kg) of the same compound?
Its value is no more than 24 h.

What about the “single oral dose up to which adverse effects were not observed” value ([1]; single oral dose) of the same compound?
The value was “up to 500 mg/kg”.

And the “Vitals, labs, and ECG findings” value [2]?
The value was “unremarkable”.

And the safety and tolerability [2]?
The safety and tolerability was “well tolerated, with no serious adverse events, and no discontinuations due to adverse events”.

And the “severity of adverse events” value [2]?
The value was “mild-moderate”.

And the Deaths ([2]; n = 16)?
The Deaths was 0.

What about the “Discontinuations due to AE” value ([2]; n = 16) of the same compound?
The value was 0.

And the “Serious AEs” value ([2]; n = 16)?
Its value is 0.

What about the “Subjects with at least 1 AE” value ([2]; n = 16) of the same compound?
Its value is 11 (68.8).

And the “TEAE: Back pain” value ([2]; n = 16)?
The value was 1.

And the “TEAE: Dizziness” value ([2]; n = 16)?
Its value is 2.

What about the “TEAE: Dizziness postural” value ([2]; n = 16) of the same compound?
Its value is 1.

What about the “TEAE: Dry mouth” value ([2]; n = 16) of the same compound?
Its value is 1.

What about the “TEAE: Dyspepsia” value ([2]; n = 16) of the same compound?
Its value is 1.

What about the “TEAE: Feeling abnormal” value ([2]; n = 16) of the same compound?
Its value is 1.

What about the “TEAE: Flatulence” value ([2]; n = 16) of the same compound?
The value was 1.

What about the “TEAE: Frequent bowel movements” value ([2]; n = 16) of the same compound?
Its value is 1.

What about the “TEAE: Headache” value ([2]; n = 16) of the same compound?
Its value is 2.

And the “TEAE: Hypertension” value ([2]; n = 16)?
Its value is 1.

What about the “TEAE: Hyperthyroidism” value ([2]; n = 16) of the same compound?
The value was 1.

What about the “TEAE: Myalgia” value ([2]; n = 16) of the same compound?
The value was 1.

And the “TEAE: Nausea” value ([2]; n = 16)?
Its value is 1.

What about the “TEAE: Nipple pain” value ([2]; n = 16) of the same compound?
The value was 1.

And the “TEAE: Orthostatic hypotension” value ([2]; n = 16)?
The value was 1.

And the “TEAE: Sensory disturbance” value ([2]; n = 16)?
The value was 1.

And the “TEAE: Skin abrasion” value ([2]; n = 16)?
The value was 1.

What about the “TEAE: Somnolence” value ([2]; n = 16) of the same compound?
Its value is 4.

And the “TEAE: T-wave inversion” value ([2]; n = 16)?
Its value is 1.

What about the “Total number of TEAEs” value ([2]; n = 16) of the same compound?
Its value is 24.

And the “BPRS+ and CADSS scores” value ([2]; vs placebo)?
Its value is “comparable as between the treatment groups”.
